This is an account of results in patent publication US20190343846A1, “PREPARATION OF SOLID CYCLODEXTRIN COMPLEXES FOR OPHTHALMIC ACTIVE PHARMACEUTICAL INGREDIENT DELIVERY” (OCULIS SA, priority 2016, published 2019).

Data set [1] can be described thus: Solubility of kinase inhibitors in pure water (S0) from phase-solubility profiles. The data set is classed as physicochemical. Particulars: for solubility: 25 °C, water, thermodynamic from solid, read-out: S0 (mg/mL), solubility in pure water.
Source text: (§1) Kinase inhibitors were suspended in aqueous solutions containing from 1% (w/v) to 15% (w/v) γ-cyclodextrin.
Data set [2] is described as follows: Solubility of kinase inhibitors in aqueous γ-cyclodextrin media. The data set is classed as physicochemical. To be noted: aqueous with cosolvent or surfactant or cyclodextrin, thermodynamic from solid. As for the experimental part: Kinase inhibitors were suspended in aqueous media consisting of pure water, aqueous γ-cyclodextrin solution, aqueous solution containing γ-cyclodextrin and tyloxapol (1% w/v), and aqueous eye drop medium containing γ-cyclodextrin, benzalkonium chloride (0.02% w/v), disodium edetate (0.10% w/v) and sodium chloride (0.05% w/v). The concentration of γ-cyclodextrin varied depending on the kinase inhibitor. The solubility was determined as described in Example 10.

Data set [3] can be described thus: Stability constant (K1:1) of active pharmaceutical ingredient/γ-cyclodextrin complexes from phase-solubility profiles. Particulars: initial linear part of phase-solubility profile. Format: physicochemical.
Source text: as §1
For data set [4] the following is noted: 25° C.; cited from earlier work.
Setting [5] is: aqueous eye drop medium with 4% w/v γ-cyclodextrin, eye drop medium: 4 % w/v γ-cyclodextrin, benzalkonium chloride 0.02%, disodium edetate 0.10%, sodium chloride 0.05%, read-out: Solubility (mg/mL) Eye drops.
[6] abbreviates: aqueous solution with 4 % w/v γ-cyclodextrin and tyloxapol (1% w/v), read-out: Solubility (mg/mL) Tyloxapol.
The mark [7] stands for this setting: aqueous γ-cyclodextrin solution, 4 % w/v γ-cyclodextrin, read-out: Solubility (mg/mL) γ-Cyclodextrin.

Values after ≈ are worked out from the molar mass of the structure shown.

Regarding `CNC(=O)c1ccccc1Sc1ccc2c(/C=C/c3ccccn3)n[nH]c2c1` [Axitinib], the solubility in data set [1] turned out to be 0.0004 mg/mL (≈ 1.03 µM); in data set [2] (setting [5]), 0.007 mg/mL (≈ 18.1 µM); in data set [2] (setting [6]), 0.008 mg/mL (≈ 20.7 µM); in data set [2] (setting [7]), 0.003 mg/mL (≈ 7.76 µM). For the same molecule, in data set [3], the “K1:1 (M^−1), stability constant of drug/γ-cyclodextrin complex” value (from here on “K1:1 (M^−1), stability constant”) was 260 M⁻¹.
As for `COc1cc2c(Oc3ccc4[nH]c(C)cc4c3F)ncnc2cc1OCCCN1CCCC1` [Cediranib], the solubility in data set [1] was found to be 1.2 mg/mL (≈ 2660 µM); in data set [2] (aqueous eye drop medium with 12% w/v γ-cyclodextrin, eye drop medium: 12 % w/v γ-cyclodextrin, benzalkonium chloride 0.02%, disodium edetate 0.10%, sodium chloride 0.05%, read-out: Solubility (mg/mL) Eye drops) it was 4.1 mg/mL (≈ 9100 µM); in data set [2] (aqueous solution with 12 % w/v γ-cyclodextrin and tyloxapol (1% w/v), read-out: Solubility (mg/mL) Tyloxapol), 2.8 mg/mL (≈ 6220 µM); in data set [2] (aqueous γ-cyclodextrin solution, 12 % w/v γ-cyclodextrin, read-out: Solubility (mg/mL) γ-Cyclodextrin), 2 mg/mL (≈ 4440 µM). In data set [3], the “K1:1 (M^−1), stability constant” value came out at 23 M⁻¹.
In the case of `CN1CCN(c2ccc3nc(-c4c(N)c5c(F)cccc5[nH]c4=O)[nH]c3c2)CC1` [Dovitinib], the “S0 (mg/mL), solubility in pure water” value in data set [1] is listed as 0.006 mg/mL. The “K1:1 (M^−1), stability constant” value in data set [3] amounted to 680 M⁻¹.
As for `CC1(C)CNc2cc(NC(=O)c3cccnc3NCc3ccncc3)ccc21` [Motesanib], the solubility in data set [1] is 0.014 mg/mL (≈ 37.5 µM); in data set [2] (aqueous eye drop medium with 8% w/v γ-cyclodextrin, eye drop medium: 8 % w/v γ-cyclodextrin, benzalkonium chloride 0.02%, disodium edetate 0.10%, sodium chloride 0.05%, read-out: Solubility (mg/mL) Eye drops) it was 0.07 mg/mL (≈ 187 µM); in data set [2] (aqueous solution with 8 % w/v γ-cyclodextrin and tyloxapol (1% w/v), read-out: Solubility (mg/mL) Tyloxapol) it was 0.04 mg/mL (≈ 107 µM); in data set [2] (aqueous γ-cyclodextrin solution, 8 % w/v γ-cyclodextrin, read-out: Solubility (mg/mL) γ-Cyclodextrin), 0.09 mg/mL (≈ 241 µM). Moreover, the “K1:1 (M^−1), stability constant” value in data set [3] turned out to be 140 M⁻¹.
For `Cc1ccc(Nc2nccc(N(C)c3ccc4c(C)n(C)nc4c3)n2)cc1S(N)(=O)=O` [Pazopanib], the solubility came to 0.0006 mg/mL (≈ 1.37 µM) in data set [1]; 0.01 mg/mL (≈ 22.9 µM) in data set [2] (aqueous eye drop medium with 16% w/v γ-cyclodextrin, eye drop medium: 16 % w/v γ-cyclodextrin, benzalkonium chloride 0.02%, disodium edetate 0.10%, sodium chloride 0.05%, read-out: Solubility (mg/mL) Eye drops); 0.006 mg/mL (≈ 13.7 µM) in data set [2] (aqueous solution with 16 % w/v γ-cyclodextrin and tyloxapol (1% w/v), read-out: Solubility (mg/mL) Tyloxapol); 0.007 mg/mL (≈ 16 µM) in data set [2] (aqueous γ-cyclodextrin solution, 16 % w/v γ-cyclodextrin, read-out: Solubility (mg/mL) γ-Cyclodextrin). For the same molecule, the “K1:1 (M^−1), stability constant” value in data set [3] was determined as 13 M⁻¹.
For `CNC(=O)c1cc(Oc2ccc(NC(=O)Nc3ccc(Cl)c(C(F)(F)F)c3)c(F)c2)ccn1` [Regorafenib], the solubility worked out at 0.0001 mg/mL (≈ 0.207 µM) in data set [1], 0.0008 mg/mL (≈ 1.66 µM) in data set [2] (setting [5]), 0.005 mg/mL (≈ 10.4 µM) in data set [2] (setting [6]) and 0.0005 mg/mL (≈ 1.04 µM) in data set [2] (setting [7]). In addition, in data set [3], the “K1:1 (M^−1), stability constant” value is 94 M⁻¹.
Turning to `OC[C@H]1O[C@@H]2O[C@H]3[C@H](O)[C@@H](O)[C@@H](O[C@H]4[C@H](O)[C@@H](O)[C@@H](O[C@H]5[C@H](O)[C@@H](O)[C@@H](O[C@H]6[C@H](O)[C@@H](O)[C@@H](O[C@H]7[C@H](O)[C@@H](O)[C@@H](O[C@H]1[C@H](O)[C@H]2O)O[C@@H]7CO)O[C@@H]6CO)O[C@@H]5CO)O[C@@H]4CO)O[C@@H]3CO` [α-cyclodextrin], the “solubility in pure water” value in data set [4] is 129500 ± 700 µg/mL (≈ 133000 µM).
`OC[C@H]1O[C@@H]2O[C@H]3[C@H](O)[C@@H](O)[C@@H](O[C@H]4[C@H](O)[C@@H](O)[C@@H](O[C@H]5[C@H](O)[C@@H](O)[C@@H](O[C@H]6[C@H](O)[C@@H](O)[C@@H](O[C@H]7[C@H](O)[C@@H](O)[C@@H](O[C@H]8[C@H](O)[C@@H](O)[C@@H](O[C@H]9[C@H](O)[C@@H](O)[C@@H](O[C@H]1[C@H](O)[C@H]2O)O[C@@H]9CO)O[C@@H]8CO)O[C@@H]7CO)O[C@@H]6CO)O[C@@H]5CO)O[C@@H]4CO)O[C@@H]3CO` [γ-cyclodextrin]: in data set [4], the “solubility in pure water” value was 249200 ± 200 µg/mL (≈ 192000 µM).
